Read-outs that look alike come from different tables or passages of the source. Where only a bound is given, the exact number is not on record here.

For assay [1], the target named is T1, human p300 CH1 domain (p300-CH1) (Homo sapiens, UniProt Q09472).
T1 construct: human p300 CH1 domain (amino acid residues 323-423); GST (N, cleaved yes); made in house; host or cells: E. coli BL21(DE3)
The experiment in a line: Tryptophan fluorescence binding assay for p300-CH1. The source says:
The DNA sequence of the human p300 CH1 domain (amino acid residues 323-423) was subcloned into a pUC57 plasmid by Genscript, Inc. After transformation of JM109 bacteria (Promega) with the plasmid, it was amplified and purified. Then the gene of interest was subcloned between BamHI and EcoRI restriction sites of pGEX-4T-2 expression vector (Amersham).
The pGEX-4T-2-p300 fusion vector was transformed into BL21(DE3) competent E.coli (Novagen) in M9 minimal media with ^15NH4Cl as the primary nitrogen source. Protein production was induced with 1 mM IPTG at OD600 of 1 for 16 hours at 15° C. Production of the desired p300-CH1-GST fusion product was verified by SDS-PAGE. Bacteria were harvested and resuspended in the lysis buffer with 20 mM Phosphate buffer (Research Products International, Corp.), 100 μM DTT (Fisher), 100 μM ZnSO4 (Sigma), 0.5% TritonX 100 (Sigma), […] Pepstatin A (Research Products International, Corp.), […] Leupeptin A (Research Products International, Corp.), 500 μM PMSF (Sigma), and 0.5% glycerol at pH 8.0. Pellets were lysed by sonication and centrifuged at 4° C. and 20,000 rpm for 20 minutes. Fusion protein was collected from the bacterial supernatant and purified by affinity chromatography using glutathione Sepharose 4B beads (Amersham) prepared according to the manufacturer's directions. GST-tag was cleaved by thrombin and protein was eluted from resin. Collected fractions were assayed by SDS-PAGE gel; pooled fractions were treated with protease inhibitor cocktail (Sigma) and against a buffer containing 10 mM Tris, 50 mM NaCl, 2 mM DTT (Fisher), and 3 equivalents ZnSO4 at pH 8.0 to ensure proper folding (vide supra).
Relative affinities of OHMs for p300-CH1 were determined using a tryptophan fluorescence binding assay. Spectra were recorded on a QuantaMaster 40 spectrofluorometer (Photon Technology International) in a 10 mm quartz fluorometer cell at 25° C. with 4 nm excitation and 4 nm emission slit widths from 200 to 400 nm at intervals of 1 nm/s. Samples were excited at 295 nm and fluorescence emission was measured from 200-400 nm and recorded at 335 nm. OHM stock solutions were prepared in DMSO. Aliquots containing 1 μL DMSO stocks were added to 400 μL of 1 μM p300-CH1 in 50 mM Tris and 100 μM NaCl (pH 8.0). After each addition, the sample was allowed to equilibrate for 5 minutes before UV analysis. Background absorbance and sample dilution effects were corrected by titrating DMSO into p300-CH1 in an analogous manner. Final fluorescence is reported as the absolute value of [(F1-F0)/F1]*100, where F1 is the final fluorescence upon titration, and F0 is the fluorescence of the blank DMSO titration. EC50 values for each peptide were determined by fitting the experimental data to a sigmoidal dose-response nonlinear regression model in GraphPad Prism 5.0, and the dissociation constants, KD, were obtained from equation (2). KD=(RT×(1−FSB)+LST×FSB^2)/FSB−LST (2)
where: • RT=Total concentration of p300-CH1 • LST=Total concentration of fluorescent peptide • FSB=Fraction of bound fluorescent peptide Results and Discussion of Examples 1-8

Assay [2] concerns triple-negative breast cancer cell line MDA-MB-231 xenograft. Conditions: MDA-MB-231 mouse xenograft; earlier study; cited from earlier work.
The next assay deals with T2, p300-CH1 domain (Homo sapiens, UniProt Q09472).
T2 construct: human p300 CH1 domain (amino acid residues 323-423); GST (N, cleaved yes); made in house; host or cells: E. coli BL21(DE3)
T2 sequence (Q09472 323-423): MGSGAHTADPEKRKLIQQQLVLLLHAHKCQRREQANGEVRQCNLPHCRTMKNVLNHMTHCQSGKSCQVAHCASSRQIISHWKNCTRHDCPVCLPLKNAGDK
To be noted: 15N-labeled CH1; earlier study; cited from earlier work.

For another assay, the system named is HIF signaling. Conditions: cell culture, at micromolar levels; earlier study; cited from earlier work.
Assay [3] concerns over 28,000 transcripts (genome-wide off-target regulation). Conditions: microarray gene expression profiling; earlier study; cited from earlier work.
The mark [4] stands for this setting: binding affinity for p300-CH1, intrinsic tryptophan fluorescence assay (Table 8), read-out: Kd.

T1 sequence (Q09472 323-423): as above

Take `CC(C)C[C@@H]1NCCN([C@@H](CC(C)C)C(=O)N2CCN([C@@H](C)C(N)=O)C(=O)[C@@H]2C)C1=O` [OHM 26]: the Kd in assay [1] (setting [4]) was 620 ± 270 nM.
For `C[C@@H]1NCCN([C@@H](C)C(=O)N2CCN([C@@H](C)C(N)=O)C(=O)[C@@H]2C)C1=O` [OHM 27], in assay [1] (setting [4]), the Kd was > 10000 nM.
Consider `CC(C)C[C@@H]1NCCN([C@@H](CC(C)C)C(=O)N2CCN([C@@H](CCC(N)=O)C(N)=O)C(=O)[C@@H]2C)C1=O` [OHM 21, LLAQ-NH2], for which the Kd in assay [1] (setting [4]) is 530 ± 140 nM. The “effect on tumor levels” value in assay [2] was “reduced tumor levels”. The “HSQC resonance shifts on addition of compound” value on p300-CH1 domain is given as “consistent shifts in resonances of residues corresponding to the HIF1α816-824 binding pocket”. Besides, the “downregulation of HIF signaling” value in the assay on HIF signaling is “efficiently downregulated HIF signaling”. The “specificity on genome-wide scale” value in assay [3] was “remarkably specific”.
For `CC(C)C[C@@H]1NCCN([C@@H](C)C(=O)N2CCN([C@@H](CCC(N)=O)C(N)=O)C(=O)[C@@H]2C)C1=O` [OHM 22, LAAQ], the Kd was > 10000 nM in assay [1] (setting [4]) and > 30000 nM in assay [1] (p300-CH1, text value, read-out: Kd for p300-CH1).
As for `CCCC[C@@H](C(=O)N1CCN([C@@H](CCC(N)=O)C(N)=O)C(=O)[C@@H]1C)N1CCN[C@@H](CC(C)C)C1=O` [OHM 23, L(Nle)AQ], the Kd in assay [1] (setting [4]) stood at 30 ± 10 nM; in assay [1] (cross-specificity, p300-CH1 (Table 9), read-out: p300 Kd) it was 30 ± 10 nM. The “enhancement in binding affinity over parent OHM 21” value in assay [1] (p300, relative to OHM 21) is listed as 13 fold.
In the case of `CC(C)CC[C@@H]1NCCN([C@@H](CCC(C)C)C(=O)N2CCN([C@@H](CCC(N)=O)C(N)=O)C(=O)[C@@H]2C)C1=O` [OHM 25, (Hle)(Hle)AQ], the Kd in assay [1] (setting [4]) is 160 ± 60 nM.

As usually defined, the Kd is the free concentration of one partner at which half of the binding sites on the other are occupied at equilibrium, for simple one-to-one binding.

The values are drawn from patent US10787424B2, “Oxopiperazine helix mimetics for control of Hypoxia-Inducible gene expression” (NEW YORK UNIVERSITY, priority 2014, dated 2020).
